Values of other authors, collected in patent US20090062244A1, “PHARMACEUTICAL COMPOSITION” (priority 2007, published 2009).

Conditions: room temperature

O=C(OOC(=O)c1ccccc1)c1ccccc1 [benzoyl peroxide]
Solubility in 95% alcohol compared with absolute alcohol: several times lower
